A short description of the test: antimicrobial activity test of alkyl pyrazine compounds or mixtures. It is filed as cell-based. From the text: Several alkyl pyrazine compounds or mixtures thereof have been tested for their antimicrobial activity.

In the case of `Cc1nccnc1CC(C)C` [2-Isobutyl-3-methylpyrazine], the Antimicrobial activity result is “Yes” and the “Degree of antimicrobiai activity” value is reported as “Strong”.
On to `CC(C)Cc1cnccn1` [2-Isobutylpyrazine], for which the Antimicrobial activity result is recorded as “Yes” and the “Degree of antimicrobiai activity” value was “Strong”.
For `COc1nccnc1CC(C)C` [2-Isobutyl-3-methoxypyrazine], the Antimicrobial activity entry is reported as “Yes” and the “Degree of antimicrobiai activity” value is “Strong”.
As for `CC(=O)c1cnccn1` [2-Acetylpyrazine, reference compound], the Antimicrobial activity entry is reported as “No”.
Take `Cc1nccnc1C` [2,3-Dimethylpyrazine, reference compound]: the Antimicrobial activity result is on record as “Yes” and the “Degree of antimicrobiai activity” value is given as “Weak”.
Take `Cc1cnc(C)cn1` [2,5-Dimethylpyrazine, reference compound]: the Antimicrobial activity entry was “Yes” and the “Degree of antimicrobiai activity” value was “Weak”.
Regarding `Cc1cnc(C)c(C)n1` [2,3,5-Trimethylpyrazine, reference compound], the Antimicrobial activity result is “No”.
For `CC(C)c1cnccn1` [2-Isopropylpyrazine], the Antimicrobial activity result was “Yes” and the “Degree of antimicrobiai activity” value was “Strong”.
Consider `Cc1nc(C(C)C)c(C(C)C)nc1C(C)C` [TS-73], for which the Antimicrobial activity entry was “No”.

These data come from patent US10881107B2, “Antimicrobial compositions containing alkylpyrazines and their uses” (ROOMBIOTIC GMBH, priority 2015, dated 2021).
